Experiment [1] in a line: social interaction test of anxiety after social defeat stress. The format is in vivo, rats. The protocol:
Animals were exposed to 7 days of social defeat stress. During these 7 days of defeat stress the average latency to defeat was observed. Based on this latency to defeat, animals were either classified as short latency (SL, defeat <300 seconds) or long latency (LL, defeat >300 seconds).
Following 7 days of defeat, the SL and LL groups were divided into two separate treatment groups receiving either vehicle or FTY720, 1 hour prior to social defeat stress on the following 3 days. Defeat latencies were recorded. Additionally, 48 hours following the end of social defeat stress, animals were tested in the social interaction test of anxiety.

The next experiment has as its target S1P3 receptor (Homo sapiens, UniProt Q99500). As to conditions: multiple Sph receptors, including the S1P3 receptor; cited from earlier work.
A short description of experiment [2]: social defeat paradigm (defeat latency). In kind it is in vivo, rats. As to conditions: SL (short latency, vulnerable) animals; drug given 1 hour prior to social defeat stress on 3 days following 7 days of defeat; p=0.0726 (FIG. 2A). The text has this: The social defeat paradigm used in these studies was modified from the resident-intruder model (Miczek, K. A. (1979) Psychopharmacology (Berl) 60:253-259). Rats were randomly assigned to either a social defeat or control group for a consecutive 7 days (Bhatnagar et al. (2006) J. Neuroendocrinol., 18:13-24; Buwalda et al. (1999) J. Neuroendocrinol., 11:513-520). During each episode of social stress, a rat was placed into the home cage territory of an unfamiliar Long-Evans resident previously screened for high aggression (Bhatnagar et al. (2006) J. Neuroendocrinol., 18:13-24; Buwalda et al. (1999) J. Neuroendocrinol., 11:513-520). […] After defeat, a wire mesh enclosure was placed in the cage to prevent physical contact between the resident and intruder but allowing visual, auditory, and olfactory contact for the remainder of the 30-minute defeat session. Latency to assume a submissive posture (defeat) was recorded and averaged over the seven daily defeat exposures. […] Rats were returned to their home cage after each session, and body weight was recorded on days 1 and 8. […]
Following 7 days of defeat, the SL and LL groups were divided into two separate treatment groups receiving either vehicle or FTY720, 1 hour prior to social defeat stress on the following 3 days. Defeat latencies were recorded. […]

Sequence of S1P3 receptor (Q99500 whole entry): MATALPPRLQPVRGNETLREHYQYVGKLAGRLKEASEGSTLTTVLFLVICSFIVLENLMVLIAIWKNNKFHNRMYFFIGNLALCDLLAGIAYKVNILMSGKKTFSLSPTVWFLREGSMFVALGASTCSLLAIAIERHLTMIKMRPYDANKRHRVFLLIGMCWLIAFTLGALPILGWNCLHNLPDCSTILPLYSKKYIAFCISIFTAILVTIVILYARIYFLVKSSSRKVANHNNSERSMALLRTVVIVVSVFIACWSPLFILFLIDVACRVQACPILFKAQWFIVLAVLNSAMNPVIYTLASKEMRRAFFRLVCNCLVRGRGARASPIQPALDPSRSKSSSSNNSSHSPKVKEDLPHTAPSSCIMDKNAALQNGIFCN

For the compound `CCCCCCCCc1ccc(CCC(N)(CO)CO)cc1` [FTY720], in experiment [1] (SL animals, tested 48 hours following the end of social defeat stress, p=0.0049 (FIG. 2B)), the social interaction time result is recorded as “prevented the decreased interaction time”. For the same compound, the “effect of the drug in resilient and control animals” value in experiment [1] (resilient LL rats or control rats) is on record as “no effects”. In addition, the “agonist activity at Sph receptors” value on S1P3 receptor is given as “potent agonist”. The defeat latency result in experiment [2] is “tended to increase defeat latency of SL animals to the level of LL animals”.

The values are drawn from US20140309291A1, “Compositions and Methods for Increasing Stress Resilience” (The Children's Hospital of Philadelphia, priority 2011, published 2014).
